Laboratory results taken from patent US8906908B2, “Hydroxybupropion analogues for treating drug dependence” (priority 2010, dated 2014).
Where two headings read alike, the source gives them in different places.

Assays:
[1] = target: T1, human DA transporters [(h)DAT] (Homo sapiens, UniProt Q01959); experiment: Inhibition of [3H]dopamine uptake into HEK293 cells stably expressing hDAT; assay type: cell-based
T1 construct: expressed in transfected cells; host or cells: HEK-293
From the text: (§1) Cell Lines and Culture: Human embryonic kidney (HEK-293) cells stably expressing human DAT, NET or SERT were maintained as previously described in Eshleman, A. J.; Carmolli, M.; Cumbay, M.; Martens, C. R.; Neve, K. A.; Janowsky, A., J. Pharmacol. Exp. Ther. 1999, 289, (2), 877-885. Use was made of several human cell lines that naturally or heterologously express specific, functional, human nAChR subtypes. Cells of the TE671/RD line naturally expresses muscle-type nAChR (a1β1γδ- or α1*-nAChR), and SH-SY5Y neuroblastoma cells naturally expresses autonomic α3β4*-nAChRs (containing α3, β4, probably α5, and sometimes β2 subunits). Different clones of SH-EP1 epithelial cell lines have been engineered to heterologously express either α4β2-nAChR, which are thought to be the most abundant, high affinity nicotine-binding nAChR in mammalian brain, or α4β4-nAChR, another possible brain nAChR subtype (SH-EP1-hα4β2 or α4β4 cells, respectively). These cells were maintained as low passage number (1-26 from our frozen stocks) cultures to ensure stable expression of native or heterologously-expressed nAChR as previously described (see Lukas, R. J.; Fryer, J. D.; Eaton, J. B.; L., G. C., Some methods for studies of nicotinic acetylcholine receptor pharmacology, in Nicotinic receptors and the Nervous System, Levine, E. D., Ed. CRC Press: Boca Raton, 2002; pp 3-27, incorporated herein by reference in its entirety). Cells were passaged once weekly by splitting just-confluent cultures 1/300 (TE671/RD), 1/5 (SH-SY5Y), or 1/20 (transfected SH-EP1) in serum-supplemented medium to maintain log-phase growth.
(§2) See, for example, Damaj, M. I.; Carroll, F. I.; Eaton, J. B.; Navarro, H. A.; Blough, B. E.; Mirza, S.; Lukas, R. J.; Martin, B. R., Mol. Pharmacol. 2004, 66, (3), 675-682 and Eshleman, A. J.; Carmolli, M.; Cumbay, M.; Martens, C. R.; Neve, K. A.; Janowsky, A., J. Pharmacol. Exp. Ther. 1999, 289, (2), 877-885, both incorporated by reference herein in their entireties.

[2] = target: T2, 5HT transporters [(h)SERT] (Homo sapiens, UniProt P31645); experiment: Inhibition of [3H]serotonin uptake into HEK293 cells stably expressing hSERT; assay type: cell-based
T2 construct: expressed in transfected cells; host or cells: HEK-293
T2 sequence (P31645 whole entry): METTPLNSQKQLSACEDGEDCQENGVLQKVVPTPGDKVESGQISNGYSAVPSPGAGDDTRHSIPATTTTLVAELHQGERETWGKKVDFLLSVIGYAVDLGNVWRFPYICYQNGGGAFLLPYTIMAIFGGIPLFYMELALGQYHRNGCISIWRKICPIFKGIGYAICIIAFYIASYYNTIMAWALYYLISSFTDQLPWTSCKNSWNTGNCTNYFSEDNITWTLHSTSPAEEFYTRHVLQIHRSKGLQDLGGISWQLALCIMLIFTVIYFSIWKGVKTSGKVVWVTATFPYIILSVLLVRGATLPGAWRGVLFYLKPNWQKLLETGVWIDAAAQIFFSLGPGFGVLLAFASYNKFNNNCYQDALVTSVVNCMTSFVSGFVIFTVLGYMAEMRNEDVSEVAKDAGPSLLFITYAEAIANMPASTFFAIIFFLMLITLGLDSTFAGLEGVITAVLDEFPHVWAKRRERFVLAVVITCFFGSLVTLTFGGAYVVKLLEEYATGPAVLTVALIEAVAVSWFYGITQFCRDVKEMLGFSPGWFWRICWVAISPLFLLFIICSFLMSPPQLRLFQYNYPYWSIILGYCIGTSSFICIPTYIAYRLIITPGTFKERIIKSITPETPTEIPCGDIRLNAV
From the text: as §1, §2

[3] = target: T3, muscle-type nAChR (α1β1γδ- or α1*-nAChR) (Homo sapiens, UniProt P02708+P07510+P11230+Q07001); experiment: 86Rb+ efflux nAChR functional assay, TE671/RD cells; assay type: cell-based; settings: parentheses = S.E.M. as multiplication/division factor
T3 construct: Cells of the TE671/RD line naturally expresses muscle-type nAChR; endogenous in cells; host or cells: TE671/RD cells
T3 sequence (P02708 21-457): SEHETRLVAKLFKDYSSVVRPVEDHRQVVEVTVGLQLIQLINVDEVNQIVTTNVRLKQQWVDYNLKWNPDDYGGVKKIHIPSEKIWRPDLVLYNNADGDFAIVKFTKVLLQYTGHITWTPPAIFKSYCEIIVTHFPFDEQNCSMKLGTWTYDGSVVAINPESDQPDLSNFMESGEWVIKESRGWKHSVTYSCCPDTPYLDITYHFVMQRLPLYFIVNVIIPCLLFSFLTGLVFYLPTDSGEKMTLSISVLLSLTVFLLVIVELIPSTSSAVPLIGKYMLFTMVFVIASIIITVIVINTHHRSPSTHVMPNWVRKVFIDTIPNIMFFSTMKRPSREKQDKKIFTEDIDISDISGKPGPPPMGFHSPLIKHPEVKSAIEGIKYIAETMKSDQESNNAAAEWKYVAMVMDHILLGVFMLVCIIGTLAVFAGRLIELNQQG
T3 sequence (P11230 24-501): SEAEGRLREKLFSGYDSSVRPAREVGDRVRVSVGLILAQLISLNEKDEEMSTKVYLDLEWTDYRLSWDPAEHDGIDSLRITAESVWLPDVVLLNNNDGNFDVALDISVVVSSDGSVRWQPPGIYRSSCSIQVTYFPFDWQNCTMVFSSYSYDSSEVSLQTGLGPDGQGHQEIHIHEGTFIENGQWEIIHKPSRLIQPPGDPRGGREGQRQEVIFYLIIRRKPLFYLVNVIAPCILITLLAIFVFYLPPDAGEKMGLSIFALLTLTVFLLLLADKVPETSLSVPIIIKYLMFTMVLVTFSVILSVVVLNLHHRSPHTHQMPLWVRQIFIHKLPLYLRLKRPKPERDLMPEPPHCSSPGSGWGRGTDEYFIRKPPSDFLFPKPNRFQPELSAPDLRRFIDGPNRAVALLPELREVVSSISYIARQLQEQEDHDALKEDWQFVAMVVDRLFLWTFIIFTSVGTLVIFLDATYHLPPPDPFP
T3 sequence (P07510 23-517): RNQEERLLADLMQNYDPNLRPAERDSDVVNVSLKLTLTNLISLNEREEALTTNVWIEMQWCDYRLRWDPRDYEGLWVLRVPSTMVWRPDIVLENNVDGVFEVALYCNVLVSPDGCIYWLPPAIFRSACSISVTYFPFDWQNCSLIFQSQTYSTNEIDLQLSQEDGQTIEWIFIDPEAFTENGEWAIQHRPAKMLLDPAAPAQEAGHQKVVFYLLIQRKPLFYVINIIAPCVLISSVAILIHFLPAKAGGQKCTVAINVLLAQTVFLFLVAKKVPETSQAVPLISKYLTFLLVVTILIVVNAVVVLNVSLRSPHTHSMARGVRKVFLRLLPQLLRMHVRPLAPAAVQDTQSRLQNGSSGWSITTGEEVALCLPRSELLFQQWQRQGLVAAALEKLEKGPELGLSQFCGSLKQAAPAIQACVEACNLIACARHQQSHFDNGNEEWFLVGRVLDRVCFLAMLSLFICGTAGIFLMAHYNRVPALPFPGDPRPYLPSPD
T3 sequence (Q07001 22-517): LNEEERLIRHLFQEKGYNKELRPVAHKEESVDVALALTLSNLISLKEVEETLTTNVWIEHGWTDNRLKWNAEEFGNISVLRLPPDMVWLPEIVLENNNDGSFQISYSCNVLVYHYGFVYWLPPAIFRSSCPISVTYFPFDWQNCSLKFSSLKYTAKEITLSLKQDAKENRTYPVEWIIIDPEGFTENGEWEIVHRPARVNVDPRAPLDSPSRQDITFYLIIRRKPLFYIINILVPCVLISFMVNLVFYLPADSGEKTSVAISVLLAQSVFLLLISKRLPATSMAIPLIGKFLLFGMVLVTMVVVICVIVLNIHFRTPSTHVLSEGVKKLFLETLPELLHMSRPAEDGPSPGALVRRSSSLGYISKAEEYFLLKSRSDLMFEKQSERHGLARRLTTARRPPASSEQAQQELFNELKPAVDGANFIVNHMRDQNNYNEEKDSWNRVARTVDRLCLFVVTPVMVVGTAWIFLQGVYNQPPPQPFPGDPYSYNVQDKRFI
From the text: as §1
After cells had adhered (generally overnight, but no sooner than 4 h later), the medium was removed and replaced with 250 μL per well of complete medium supplemented with ˜350,000 cpm of ^86Rb^+ (PerkinElmer Life and Analytical Sciences, Boston, Mass.) and counted at 40% efficiency using Cerenkov counting (TriCarb 1900 liquid scintillation analyzer[…]; PerkinElmer Life Sciences).
After at least 4 h and typically overnight, ^86Rb^+ efflux was measured using the “flip-plate” technique. See Lukas, R. J.; Fryer, J. D.; Eaton, J. B.; L., G. C., Some methods for studies of nicotinic acetylcholine receptor pharmacology, in Nicotinic receptors and the Nervous System, Levine, E. D., Ed. CRC Press: Boca Raton, 2002; pp 3-27, incorporated herein by reference in its entirety). Briefly, after aspiration of the bulk of ^86Rb^+ loading medium from each well of the “cell plate,” each well containing cells was rinsed 3× with 2 mL of fresh ^86Rb^+ efflux buffer (130 mM NaCl, 5.4 mM KCl, 2 mM CaCl2, 5 mM glucose, 50 mM HEPES, pH 7.4) to remove extracellular ^86Rb^+. Following removal of residual rinse buffer by aspiration, the flip-plate technique was used again to simultaneously introduce 1.5 mL of fresh efflux buffer containing drugs of choice at indicated final concentrations from a 24-well “efflux/drug plate” into the wells of the cell plate. After a 5 min incubation, the solution was “flipped” back into the efflux/drug plate, and any remaining buffer in the cell plate was removed by aspiration. Cells remaining in the cell plate were lysed and suspended by addition of 1.5 mL of 0.1 M NaOH, 0.1% sodium dodecyl sulfate to each well.
Similarly, the sum of ^86Rb^+ in cell plates and efflux/drug plates also determined the efficiency of ^86Rb^+ loading (the percentage of applied ^86Rb^+ actually loaded into cells).
Specific efflux was then taken as the difference in control samples between total and non-specific ^86Rb^+ efflux. Any intrinsic agonist activity of test drugs was ascertained using samples containing test drug only at different concentrations and was normalized, after subtraction of non-specific efflux, to specific efflux in test drug-free, control samples.

[4] = test system: Male Institute of Cancer Research (ICR) mice; experiment: Tail-flick test, blockade of nicotine-induced antinociception; assay type: in vivo; settings: mice, pretreatment 15 min before nicotine 2.5 mg/kg s.c., tested 5 min after nicotine; for ED50: Mus musculus, 5 min, read-out: AD50 Tail-flick
From the text: (§3) Animals: Male Institute of Cancer Research (ICR) mice (weighing 20-25 g) obtained from Harlan (Indianapolis, Ind.) were used throughout the study. Animals were housed in an Association for Assessment and Accreditation of Laboratory Animal Care-approved facility, were placed in groups of six, and had free access to food and water. Studies were approved by the Institutional Animal Care and Use Committee of Virginia Commonwealth University.
Tail-Flick Test: Antinociception for pain mediated at the spinal level was assessed by the tail-flick method of D'Amour, F. E.; Smith, D. L., J. Pharmacol. Exp. Ther. 1941, 72, 74-79, incorporated herein by reference in its entirety. In brief, mice were lightly restrained while a radiant heat source was shone onto the upper portion of the tail. To minimize tissue damage, a maximum latency of 10 s was imposed. Latency to remove the tail from the heat source was recorded for each animal. […] Antinociceptive response was calculated as the percentage of maximum possible effect (% MPE), where % MPE=[(test control)/(10 control)]×100.

[5] = test system: Male Institute of Cancer Research (ICR) mice; experiment: Locomotor activity, antagonism of nicotine effect; assay type: in vivo; settings: for AD50 Locomotion: pretreatment 15 min before nicotine […] s.c.; for ED50: Mus musculus, pretreatment 15 min before nicotine 1.5 mg/kg s.c., read-out: AD50 Locomotion
From the text: as §3
Locomotor Activity: Mice were placed into individual Omnitech photocell activity cages (28×16.5 cm; Omnitech Electronics, Columbus, Ohio) 5 min after subcutaneous administration of either 0.9% saline or nicotine (1.5 mg/kg). Interruptions of the photocell beams (two banks of eight cells each) were then recorded for the next 10 min. Data were expressed as the number of photocell interruptions.

[6] = nAChR inhibition IC50 α1*β1, EC80-EC90 carbamylcholine
[7] = HEK293-hDAT, mean ± standard error of three independent experiments, read-out: monoamine uptake inhibition IC50 [3H]DA
[8] = HEK293-hSERT, mean ± standard error of three independent experiments, read-out: monoamine uptake inhibition IC50 [3H]5HT
[9] = EC80-EC90 carbamylcholine, read-out: nAChR inhibition IC50 α1*β1

T1 sequence (Q01959 whole entry): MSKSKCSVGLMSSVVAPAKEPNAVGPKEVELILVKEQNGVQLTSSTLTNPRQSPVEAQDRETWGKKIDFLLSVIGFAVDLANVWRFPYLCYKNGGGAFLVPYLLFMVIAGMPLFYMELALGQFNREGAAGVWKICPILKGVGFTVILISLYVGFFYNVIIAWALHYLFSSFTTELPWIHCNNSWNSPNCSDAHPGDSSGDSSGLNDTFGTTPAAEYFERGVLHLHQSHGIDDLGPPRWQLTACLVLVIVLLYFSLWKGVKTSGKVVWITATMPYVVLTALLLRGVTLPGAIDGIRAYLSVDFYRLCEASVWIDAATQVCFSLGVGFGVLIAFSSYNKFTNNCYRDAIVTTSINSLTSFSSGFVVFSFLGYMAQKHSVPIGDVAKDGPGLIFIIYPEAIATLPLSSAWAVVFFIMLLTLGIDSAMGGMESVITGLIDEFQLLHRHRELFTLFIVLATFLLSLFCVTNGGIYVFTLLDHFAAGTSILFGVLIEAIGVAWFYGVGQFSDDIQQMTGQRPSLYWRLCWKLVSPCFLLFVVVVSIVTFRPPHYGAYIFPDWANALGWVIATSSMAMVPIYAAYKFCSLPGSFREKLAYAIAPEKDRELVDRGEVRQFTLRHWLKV

Row | SMILES | IC50 [1] [µM] | selectivity for inhibition of DA uptake over α4β2-nAChR [1] [fold] | IC50 [2] [µM] | IC50 [3, 6] [µM] | ED50 [4] [mg/kg] | AD50 Locomotion [5] | IC50 [1, 7] [µM] | IC50 [2, 8] [µM] | AD50 Tail-flick [4] | ED50 [5] [mg/kg] | IC50 [3, 9] [µM]
1 | CC1NC(C)(C)COC1(O)c1ccc(Cl)c(Cl)c1 (racemic) [Compound 4n, 2-(3,4-Dichlorophenyl)-3,5,5-trimethylmorpholin-2-ol] | 0.07 | > 285 | 0.36 | 7.2 | 8.8 | IA (IA: AD50 > 15 mg/kg) |  |  |  |  | 
2 | CC1NC(C)(C)COC1(O)c1cc(Cl)cc(Cl)c1 (racemic) [Compound 4p, 2-(3,5-Dichlorophenyl)-3,5,5-trimethylmorpholin-2-ol] |  |  |  | 7.2 |  |  | 8.25 ± 0.72 | > 10 | IA (IA: AD50 > 15 mg/kg) | 1.9 | 
3 | C[C@@H]1NC(C)(C)CO[C@@]1(O)c1ccccc1 [Compound 4b, (2S,3S)-2-Phenyl-3,5,5-trimethylmorpholin-2-ol] |  |  |  | > 100 |  | IA (IA: AD50 > 15 mg/kg) | 1.06 ± 0.03 | > 10 | IA (IA: AD50 > 15 mg/kg) |  | 
4 | C[C@@H]1NC(C)(C)CO[C@@]1(O)c1cccc(F)c1 [Compound 4c, (2S,3S)-2-(3-Fluorophenyl)-3,5,5-trimethylmorpholin-2-ol] |  |  | > 10 | > 100 | 0.012 to 0.013 | IA (IA: AD50 > 15 mg/kg) | 1.38 ± 0.36 |  |  |  | 
5 | C[C@@H]1NC(C)(C)CO[C@@]1(O)c1cccc(Br)c1 [Compound 4d, (2S,3S)-2-(3-Bromophenyl)-3,5,5-trimethylmorpholin-2-ol] |  |  | > 10 | 5.9 to 19 | 0.16 | 2.6 mg/kg | 3.34 ± 0.68 |  |  | 2.6 | 18
6 | Cc1cccc([C@]2(O)OCC(C)(C)N[C@H]2C)c1 [Compound 4e, (2S,3S)-2-(m-Tolyl)-3,5,5-trimethylmorpholin-2-ol] |  |  |  | > 33 | 0.054 | IA (IA: AD50 > 15 mg/kg) | 2.6 ± 0.4 | > 10 |  |  | 33
7 | COc1cccc([C@]2(O)OCC(C)(C)N[C@H]2C)c1 [Compound 4f, (2S,3S)-2-(3-Methoxyphenyl)-3,5,5-trimethylmorpholin-2-ol] |  |  |  |  | 5.85 | IA (IA: AD50 > 15 mg/kg) | 16 | > 10 |  |  | 49
8 | C[C@@H]1NC(C)(C)CO[C@@]1(O)c1cccc([N+](=O)[O-])c1 [Compound 4g, (2S,3S)-2-(3-Nitrophenyl)-3,5,5-trimethylmorpholin-2-ol] |  |  |  |  | 4.9 | IA (IA: AD50 > 15 mg/kg) | 12 | > 10 |  |  | 96
9 | C[C@@H]1NC(C)(C)CO[C@@]1(O)c1ccc(F)cc1 [Compound 4h, (2S,3S)-2-(4-Fluorophenyl)-3,5,5-trimethylmorpholin-2-ol] |  |  |  |  | 0.012 to 0.013 | IA (IA: AD50 > 15 mg/kg) | 4.2 ± 0.7 | > 10 |  |  | 69
10 | C[C@@H]1NC(C)(C)CO[C@@]1(O)c1ccc(Cl)cc1 [Compound 4i, (2S,3S)-2-(4-Chlorophenyl)-3,5,5-trimethylmorpholin-2-ol] |  |  |  |  | 0.019 | IA (IA: AD50 > 15 mg/kg) | 0.285 | 4.6 ± 0.9 |  |  | 19
11 | Cc1ccc([C@]2(O)OCC(C)(C)N[C@H]2C)cc1 [Compound 4j, (2S,3S)-3,5,5-Trimethyl-2-(4-methylphenyl)morpholin-2-ol] |  |  |  |  | 0.004 | IA (IA: AD50 > 15 mg/kg) | 0.832 ± 0.26 | > 10 |  |  | 20
12 | COc1ccc([C@]2(O)OCC(C)(C)N[C@H]2C)cc1 [Compound 4k, (2S,3S)-2-(4-Methoxyphenyl)-3,5,5-trimethylmorpholin-2-ol] |  |  | > 10 |  | 0.019 | IA (IA: AD50 > 15 mg/kg) | > 10 |  |  |  | 25
13 | C[C@@H]1NC(C)(C)CO[C@@]1(O)c1ccc(-c2ccccc2)cc1 [Compound 4l, (2S,3S)-2-Biphenyl-4-yl-3,5,5-trimethylmorpholin-2-ol] | > 10 |  | > 10 | 5.9 to 19 | 0.021 | IA (IA: AD50 > 15 mg/kg) |  |  |  |  | 5.9
